The test system of the data set is CCRIS mutagenicity, Ames/micronucleus/aberration tests. Kind of data set: CCRIS mutagenicity studies.
Where [1] appears, read: Test System: AMES SALMONELLA TYPHIMURIUM, Strain/Indicator: TA98, Metabolic Activation: RAT, LIVER, S-9, AROCLOR 1254, Method: STANDARD PLATE.
Setting [2] is: Test System: AMES SALMONELLA TYPHIMURIUM, Strain/Indicator: TA100, Metabolic Activation: RAT, LIVER, S-9, AROCLOR 1254, Method: STANDARD PLATE.
[3] abbreviates: Test System: AMES SALMONELLA TYPHIMURIUM, Strain/Indicator: TA1535, Metabolic Activation: NONE, Method: STANDARD PLATE.
The mark [4] stands for this setting: Test System: AMES SALMONELLA TYPHIMURIUM, Strain/Indicator: TA1535, Metabolic Activation: RAT, LIVER, S-9, AROCLOR 1254, Method: STANDARD PLATE.
Setting [5] is: Test System: AMES SALMONELLA TYPHIMURIUM, Strain/Indicator: TA1538, Metabolic Activation: NONE, Method: STANDARD PLATE.
The mark [6] stands for this setting: Test System: AMES SALMONELLA TYPHIMURIUM, Strain/Indicator: TA1538, Metabolic Activation: RAT, LIVER, S-9, AROCLOR 1254, Method: STANDARD PLATE.
The mark [7] stands for this setting: Test System: AMES SALMONELLA TYPHIMURIUM, Strain/Indicator: TA100, Metabolic Activation: NONE, Method: PREINCUBATION
[8] abbreviates: Test System: AMES SALMONELLA TYPHIMURIUM, Strain/Indicator: TA98, Metabolic Activation: NONE, Method: PREINCUBATION

Calls of active or inactive are those of the source. No rule for the calls is given here.

With `CN(C)C(=S)SSC(=S)N(C)C`, the mutagenic call reads like this: (End Point: IN VIVO MICRONUCLEUS, Test System: BONE MARROW POLYCHROMATIC ERYTHROCYTES, Species: MOUSE, Strain/Sex: SWISS/MALE, FEMALE, Route: IP 2X IN AQUEOUS SUSPENSION WITHIN 24 HR) “inactive; negative”; under setting [1], “active; positive”; (Test System: AMES SALMONELLA TYPHIMURIUM, Strain/Indicator: TA98, Metabolic Activation: S-9, Method: STANDARD PLATE) “inactive; negative”; under setting [2], “active; positive”; (Test System: AMES SALMONELLA TYPHIMURIUM, Strain/Indicator: TA100, Metabolic Activation: S-9, Method: STANDARD PLATE) “active; positive”; (Test System: AMES SALMONELLA TYPHIMURIUM, Strain/Indicator: TA102, Metabolic Activation: NONE, Method: STANDARD PLATE) “inactive; negative”. Also, the mutagenic call is “inactive; negative” (Test System: AMES SALMONELLA TYPHIMURIUM, Strain/Indicator: TA102, Metabolic Activation: RAT, LIVER, S-9, AROCLOR 1254, Method: STANDARD PLATE); “inactive; negative” (Test System: AMES SALMONELLA TYPHIMURIUM, Strain/Indicator: TA104, Metabolic Activation: NONE, Method: STANDARD PLATE); “inactive; negative” (Test System: AMES SALMONELLA TYPHIMURIUM, Strain/Indicator: TA104, Metabolic Activation: RAT, LIVER, S-9, AROCLOR 1254, Method: STANDARD PLATE); “active; positive” under setting [3]; “active; positive” under setting [4]; “active; positive” under setting [5]. Besides, the mutagenic call is “active; positive” under setting [6] and “active; positive” (Test System: CHINESE HAMSTER V-79, Strain/Indicator: V-79 (HGPRT)/6-THIOGUANINE, Metabolic Activation: NONE, Method: RESPREADING).
As for `OC[C@H]1OC(n2cnc3c2ncn2ccnc32)C[C@@H]1O` (some centres not stated), under setting [7], the mutagenic call is “inactive; negative”.
For the molecule `CC(=O)N(O)c1ccc(/C=C/c2ccccc2)cc1`, the mutagenic call runs as follows: under setting [8], “inactive; negative”; (Test System: AMES SALMONELLA TYPHIMURIUM, Strain/Indicator: TA98, Metabolic Activation: RAT, LIVER, CYTOSOL, Method: PREINCUBATION) “active; positive”; (Test System: AMES SALMONELLA TYPHIMURIUM, Strain/Indicator: TA98, Metabolic Activation: RAT, LIVER, MICROSOMES, Method: PREINCUBATION) “active; positive”; (Test System: CHINESE HAMSTER V-79, Strain/Indicator: V-79/6-THIOGUANINE, Metabolic Activation: NONE, Method: STANDARD PLATE) “active; positive”.
`OC[C@H]1O[C@@H](n2cnc3c(NC[C@H](O)COc4cccc5ccccc45)ncnc32)[C@H](O)[C@@H]1O`: the mutagenic call (Test System: AMES SALMONELLA TYPHIMURIUM, Strain/Indicator: TA97, Metabolic Activation: NONE, Method: STANDARD PLATE) was “inactive; negative”; the mutagenic call (Test System: AMES SALMONELLA TYPHIMURIUM, Strain/Indicator: TA97, Metabolic Activation: RAT, LIVER, S-9, AROCLOR 1254, Method: STANDARD PLATE) was “inactive; negative”; the mutagenic call (Test System: AMES SALMONELLA TYPHIMURIUM, Strain/Indicator: TA98, Metabolic Activation: NONE, Method: STANDARD PLATE) was “inactive; negative”; the mutagenic call under setting [1] is “inactive; negative”; the mutagenic call (Test System: AMES SALMONELLA TYPHIMURIUM, Strain/Indicator: TA100, Metabolic Activation: NONE, Method: STANDARD PLATE) is “inactive; negative”; the mutagenic call under setting [2] is “inactive; negative”. For the same molecule, the mutagenic call under setting [3] was “inactive; negative”; the mutagenic call under setting [4] was “inactive; negative”; the mutagenic call under setting [5] was “inactive; negative”; the mutagenic call under setting [6] is “inactive; negative”; the mutagenic call (Test System: CHINESE HAMSTER OVARY, Strain/Indicator: CHO-KL-BH4 (HGPRT), Metabolic Activation: NONE) is “inactive; negative”; the mutagenic call (Test System: CHINESE HAMSTER OVARY, Strain/Indicator: CHO-KL-BH4 (HGPRT), Metabolic Activation: RAT, LIVER, S-9, AROCLOR 1254) is “inactive; negative”. The mutagenic call is, setting by setting: (Test System: MOUSE LYMPHOMA, Strain/Indicator: L5178Y (TK+/TK-), Metabolic Activation: NONE, Method: SUSPENSION/PLATE) “inactive; negative”; (Test System: MOUSE LYMPHOMA, Strain/Indicator: L5178Y (TK+/TK-), Metabolic Activation: RAT, LIVER, S-9, AROCLOR 1254, Method: SUSPENSION/PLATE) “active; positive”.
On to `Cc1cc(NS(=O)(=O)c2ccc(N)cc2)no1`, for which the mutagenic call runs as follows: (End Point: AMES SALMONELLA TYPHIMURIUM, Test System: TA98, Metabolic Activation: NONE, Method: STANDARD PLATE) “active; positive”; (End Point: AMES SALMONELLA TYPHIMURIUM, Test System: TA100, Metabolic Activation: NONE, Method: STANDARD PLATE) “active; positive”.
Regarding `O=[N+]([O-])c1cc(Cl)c(Cl)c(Cl)c1Cl`, the mutagenic call reads like this: (Test System: AMES SALMONELLA TYPHIMURIUM, Strain/Indicator: TA98, Metabolic Activation: HAMSTER, LIVER, S-9, AROCLOR 1254, Method: PREINCUBATION) “inactive; negative”; under setting [8], “inactive; negative”; (Test System: AMES SALMONELLA TYPHIMURIUM, Strain/Indicator: TA98, Metabolic Activation: RAT, LIVER, S-9, AROCLOR 1254, Method: PREINCUBATION) “inactive; negative”; (Test System: AMES SALMONELLA TYPHIMURIUM, Strain/Indicator: TA100, Metabolic Activation: HAMSTER, LIVER, S-9, AROCLOR 1254, Method: PREINCUBATION) “inactive; negative”; under setting [7], “inactive; negative”; (Test System: AMES SALMONELLA TYPHIMURIUM, Strain/Indicator: TA100, Metabolic Activation: RAT, LIVER, S-9, AROCLOR 1254, Method: PREINCUBATION) “inactive; negative”. The mutagenic call (Test System: AMES SALMONELLA TYPHIMURIUM, Strain/Indicator: TA1535, Metabolic Activation: HAMSTER, LIVER, S-9, AROCLOR 1254, Method: PREINCUBATION) is “inactive; negative”; the mutagenic call (Test System: AMES SALMONELLA TYPHIMURIUM, Strain/Indicator: TA1535, Metabolic Activation: NONE, Method: PREINCUBATION) was “inactive; negative”; the mutagenic call (Test System: AMES SALMONELLA TYPHIMURIUM, Strain/Indicator: TA1535, Metabolic Activation: RAT, LIVER, S-9, AROCLOR 1254, Method: PREINCUBATION) was “inactive; negative”; the mutagenic call (Test System: AMES SALMONELLA TYPHIMURIUM, Strain/Indicator: TA1537, Metabolic Activation: HAMSTER, LIVER, S-9, AROCLOR 1254, Method: PREINCUBATION) is “inactive; negative”; the mutagenic call (Test System: AMES SALMONELLA TYPHIMURIUM, Strain/Indicator: TA1537, Metabolic Activation: NONE, Method: PREINCUBATION) was “inactive; negative”; the mutagenic call (Test System: AMES SALMONELLA TYPHIMURIUM, Strain/Indicator: TA1537, Metabolic Activation: RAT, LIVER, S-9, AROCLOR 1254, Method: PREINCUBATION) was “inactive; negative”.

(Values after PubChem BioAssay AID1259407 (Chemical Carcinogenesis Research Information System (CCRIS), 2018).)
